Converted amounts (≈) assume the structure as drawn.
How the values were obtained:
PD-1/PD-L1 interaction = molecular target: T1, PD-1/PD-L1 interaction (Homo sapiens, UniProt Q9NZQ7); assay: HTRF-based PD-1/PD-L1 binding assay; conditions: for IC50 / inhibition at 0.1 µM / inhibition at 1 µM: HTRF; for IC50: two independent experiments; for LE: LE = −1.35 logIC50/Nheavy atoms (HTRF IC50); for inhibition at 0.1 µM: 0.1 μM compound, read-out: Inhibitory Rate (%) 0.1 μM; for inhibition at 1 µM: 1 μM compound, read-out: Inhibitory Rate (%) 1 μM
T1 construct: purchased Cisbio 64ICP01PEG

MDA-MB-231 cells = assay: MTT non-specific cytotoxicity assay, MDA-MB-231; type: cell-based; conditions: for EC50: Homo sapiens, MDA-MB-231, 48 h, read-out: EC50 (μM)/MDA-MB-231 Toxicity; for direct killing of tumor cells: as shown in Table 3
Method: (§1) Considering that the toxicity of the compound might strongly interfere with the assay if the tested compounds could block PD-1/PD-L1 interaction to activate T cells for killing tumors, we examined their cell toxicities of MDA-MB-231 and Jurkat T cells in MTT assay. […] Furthermore, Jurkat T cells were used to simulate primary T cells for investigating the immune toxicity of the treated compounds with the regular concentrations within 48 h.
(§2) The MDA-MB-231 and Jurkat cell line was provided by the Chinese Academy of Sciences Cell Bank. The cytotoxicity of the test compounds was determined using the MTT assay. Briefly, MDA-MB-231 and Jurkat cells were incubated at 37 °C in a humidified 5% CO2 incubator for 24 h in 96-microwell plates. Then, 100 μL of culture medium containing the test compounds at different concentrations was added to each well and incubated at 37 °C for another 48 h. The MTT was added and incubated for another 4 h, and the optical density was detected with a microplate reader at 570 nm. The IC50 values were calculated according to the dose-dependent curves.

Jurkat T cells = assay: MTT non-specific cytotoxicity assay, Jurkat; type: cell-based; conditions: for EC50: Homo sapiens, Jurkat, MTT, 48 h, read-out: EC50 (μM)/Jurkat Toxicity; for immune toxicity in Jurkat T cells: regular concentrations within 48 h
Method: as §1, §2

Water solubility by HPLC = type: physicochemical; conditions: aqueous buffer, thermodynamic from solid, pH 7.4, PBS
Method: The aqueous solubility was estimated by HPLC. The HPLC analysis was performed on a Shimadzu LC-20AT machine with a BDS Hypersil C18 column, and the column temperature was at 28 °C. Mobile phase B (100% MeOH) and mobile phase A (100% water) were used in a gradient elution program (0 min: 30% (B), 2 min: 50% (B), 8 min: 95% (B), 14 min: 95% (B), 18 min: 70% (B), 20 min: 30% (B)) with a flow rate of 1.0 mL/min at […]. Methanol was used to configure an accurate compounds concentration to calculate the standard curve. The excess test compound was dissolved in PBS (KH2PO4 0.24 g + KCl 0.2 g + NaCl 8 g + Na2HPO4·12H2O 3.58 g + 1 L water) and then analyzed by HPLC.

hPD-L1 = hPD-L1 (Homo sapiens, UniProt Q9NZQ7); assay: SPR binding affinity assay (Biacore T200)
Method: To provide definitive evidence of direct binding to PD-L1 with small-molecule inhibitors, an SPR-based binding assay was performed using Biacore T200 instrument, which facilitates measurement of the kinetic parameters of ligand–protein complex formation. In this determination, hPD-L1/Fc was loaded on a Series S Sensor Chip Protein A. A9 and A15, with similar bioactivities in HTRF assay, were gradually subjected to this assay, and their kinetic parameters and the binding affinities were determined with the aid of Biacore evaluation software.
SPR analysis was carried out according to the method described by a previous article. The kinetic analysis for the interaction of small molecules with hPD-L1 was performed on a Biacore T200 (GE Healthcare Bio-sciences, Uppsala, Sweden) using Series S Sensor Chip Protein A (GE Healthcare Bio-sciences, Uppsala, Sweden, catalog # 29139131-AA). Briefly, Fc-hPD-L1 (Acro Biosystems, Cambridge, MA, USA, catalog #PD1-H5258) was diluted using 1 × PBS-P^+ buffer (phosphate buffer 1×, GE Healthcare Bio-sciences, catalog # 28-9950-84, enriched with 0.05% surfactant P20) containing 5% DMSO (Sigma-Aldrich, St. Louis, MO, America, catalog # D4540) and captured as the ligand (i.e., the target of small molecules) on protein A chip surface following Biacore T200 build-in protocol for kinetic/affinity analysis at a concentration of 10 μg/mL. The contact time and flow rates were set as 120 s and 10 μL/min for the ligand capture. Each experiment was performed using a pair of flow cells, one with ligand captured and the other kept as reference. A concentration gradient of analytes was freshly prepared in 1× PBS-P^+ buffer with 5% DMSO with at least five concentrations, and the concentration range was optimized according to different analytes. Analytes could flow through both ligand-captured flow cells and reference flow cells at the same rate (30 μL/min) and contact time (90 s). Solvent correction was included to avoid the impact of DMSO on surface plasmon effect during binding analysis. Extra washing of the flow system using 50% DMSO in 1×PBS-P^+ buffer was allowed to control carry over effects. For the regeneration of surface after each cycle (one-time ligand capture and binding of analyte at a single concentration) was carried out using 10 mM glycine pH 1.5 (GE Healthcare Bio-sciences, Uppsala, Sweden, catalog #BR-1003-54) at a flow rate of 30 μL/min for 30 s. Kinetic analysis was performed at 25 °C. Maximum binding response (Rmax) and equilibrium dissociation […] (KD) values were calculated using Biacore T200 Evaluation software following the 1:1 binding model.

T1 sequence (Q9NZQ7 19-238 limits assumed): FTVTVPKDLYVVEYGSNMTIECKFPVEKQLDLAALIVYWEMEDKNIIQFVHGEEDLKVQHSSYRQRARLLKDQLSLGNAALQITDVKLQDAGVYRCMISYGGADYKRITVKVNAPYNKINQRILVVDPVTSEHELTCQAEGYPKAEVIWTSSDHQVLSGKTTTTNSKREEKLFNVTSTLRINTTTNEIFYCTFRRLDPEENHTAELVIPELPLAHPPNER
Chain of hPD-L1 (Q9NZQ7 19-238 limits assumed): as above

| IC50 (PD-1/PD-L1 interaction) [nM] | LE (PD-1/PD-L1 interaction) | melting point [°C] | Compound | other results |
| --- | --- | --- | --- | --- |
| 60 | 0.33 | 113 to 115 | COc1nc(-c2cccc(-c3ccc(F)cc3F)c2C)ccc1CNCCC(N)=O [Compound A16] |  |
| 14.3 | 0.35 | 80 to 82 | COc1nc(-c2cccc(-c3ccccc3F)c2C)ccc1CNC1CCC(O)CC1 (stereo not drawn) [Compound A5, 4-(((6-(2′-Fluoro-2-methyl-[1,1′-biphenyl]-3-yl)-2-methoxypyridin-3-yl)methyl)amino)cyclohexan-1-ol] |  |
| 6.18 | 0.39 | 49 to 51 | COc1nc(-c2cccc(-c3ccccc3Cl)c2C)ccc1CNCCC(N)=O [Compound A11] | EC50 (MDA-MB-231 cells): 7.1 µM; direct killing of tumor cells (MDA-MB-231 cells): do not directly kill tumor cells; EC50 (Jurkat T cells): 5.5 µM; immune toxicity in Jurkat T cells (Jurkat T cells): lower cell toxicity |
|  |  |  | COc1nc(OCc2cccc(-c3ccccc3)c2C)ccc1CNCCNC(C)=O [BMS-202, reference compound] | solubility (Water solubility by HPLC): 90 µg/mL (≈ 215 µM) |
| 1.94 | 0.43 | 127 to 128 | COc1nc(-c2cccc(-c3ccccc3)c2C)ccc1CNCCC(N)=O [Compound A13] | increase in potency over compound A11 (PD-1/PD-L1 interaction; HTRF IC50 ratio): approximately 3 fold; EC50 (MDA-MB-231 cells): > 10 µM; direct killing of tumor cells (MDA-MB-231 cells): do not directly kill tumor cells; EC50 (Jurkat T cells): 7.73 µM |
| 20.6 | 0.33 | 218 to 220 | COc1nc(-c2cccc(-c3ccccc3F)c2C)ccc1CN1CCC(C(=O)O)CC1 [Compound A8, 1-((6-(2′-Fluoro-2-methyl-[1,1′-biphenyl]-3-yl)-2-methoxypyridin-3-yl)methyl)piperidine-4-carboxylic acid] |  |
| 51.5 | 0.31 | 50.5 to 53.5 | COc1nc(-c2cccc(-c3ccccc3C(F)(F)F)c2C)ccc1CNCCC(N)=O [Compound A12] | decrease in activity as compared with A9 (PD-1/PD-L1 interaction; HTRF IC50 ratio): more than 10 fold |
| 114 | 0.38 |  | Cc1ccccc1-c1cccc(OCCCN2CCC(O)CC2)c1C.Cl [Compound A1, 1-(3-((2,2′-Dimethyl-[1,1′-biphenyl]-3-yl)oxy)propyl)piperidin-4-ol hydrochloride] | inhibition at 0.1 µM (PD-1/PD-L1 interaction): 56%; inhibition at 1 µM (PD-1/PD-L1 interaction): 90% |
| 18.4 | 0.35 | 61.5 to 63.5 | COc1cc(-c2cccc(-c3ccccc3F)c2C)ccc1CN1CCC(O)CC1 [Compound A3, 1-((2″-Fluoro-3-methoxy-2′-methyl-[1,1′:3′,1″-terphenyl]-4-yl)methyl)piperidin-4-ol] | inhibition at 0.1 µM (PD-1/PD-L1 interaction): 74.5%; inhibition at 1 µM (PD-1/PD-L1 interaction): 96.2% |
|  |  | 110 to 113 | Cc1c(CN2CCC(N3CCC(O)CC3)CC2)cccc1-c1ccccc1F [Compound A2, 1′-((2′-Fluoro-2-methyl-[1,1′-biphenyl]-3-yl)methyl)-[1,4′-bipiperidin]-4-ol] | inhibition at 0.1 µM (PD-1/PD-L1 interaction): 8.5%; inhibition at 1 µM (PD-1/PD-L1 interaction): 6.7% |
| 21.9 | 0.36 | 84 to 86 | COc1nc(-c2cccc(-c3ccccc3F)c2C)ccc1CN1CCC(O)CC1 [Compound A4, 1-((6-(2′-Fluoro-2-methyl-[1,1′-biphenyl]-3-yl)-2-methoxypyridin-3-yl)methyl)piperidin-4-ol] | inhibition at 0.1 µM (PD-1/PD-L1 interaction): 71%; inhibition at 1 µM (PD-1/PD-L1 interaction): 98% |
| 10.7 | 0.34 | 194 to 196 | COc1nc(-c2cccc(-c3ccccc3F)c2C)ccc1CN1CCC(C(N)=O)CC1 [Compound A7, 1-((6-(2′-Fluoro-2-methyl-[1,1′-biphenyl]-3-yl)-2-methoxypyridin-3-yl)methyl)piperidine-4-carboxamide] |  |
| 0.97 | 0.43 | 120 to 122 | COc1nc(-c2cccc(-c3ccc(F)cc3)c2C)ccc1CNCCC(N)=O [Compound A15] | LE (hPD-L1; LE = -1.35log KD/Nheavy atoms (SPR KD)): 0.36; kon (hPD-L1; SPR association rate, read-out: Ka (M-1s-1) / Kon): 505000 M⁻¹ s⁻¹; koff (hPD-L1; SPR dissociation rate, read-out: Kd (s-1) / Koff): 0.0101 s⁻¹; Kd (hPD-L1; SPR, 25 °C, 1:1 binding model): 19.9 nM; EC50 (MDA-MB-231 cells): 10.2 µM; direct killing of tumor cells (MDA-MB-231 cells): do not directly kill tumor cells; EC50 (Jurkat T cells): 5.5 µM; immune toxicity in Jurkat T cells (Jurkat T cells): lower cell toxicity |
| 866 | 0.28 | 122 to 124 | COc1nc(-c2cccc(-c3ccc(Cl)cc3F)c2C)ccc1CNCCC(N)=O [Compound A17] |  |
| 791 | 0.25 | 137 to 139 | COc1nc(-c2cccc(-c3ccc(C(F)(F)F)cc3F)c2C)ccc1CNCCC(N)=O [Compound A18] |  |
| 1.75 | 0.41 | 48 to 51 | COc1nc(-c2cccc(-c3cccc(F)c3)c2C)ccc1CNCCC(N)=O [Compound A14, 3-(((6-(3′-Fluoro-2-methyl-[1,1′-biphenyl]-3-yl)-2-methoxypyridin-3-yl)methyl)amino)propenamide] | EC50 (MDA-MB-231 cells): > 10 µM; direct killing of tumor cells (MDA-MB-231 cells): do not directly kill tumor cells; EC50 (Jurkat T cells): > 10 µM |
| 10.5 | 0.38 | 70 to 73 | COc1nc(-c2cccc(-c3ccccc3C)c2C)ccc1CNCCC(N)=O [Compound A10] | decrease in activity as compared with A9 (PD-1/PD-L1 interaction; HTRF IC50 ratio): more than 10 fold |
| 121 | 0.30 | 88 to 91 | COc1nc(-c2cccc(-c3ccccc3F)c2C)ccc1CN1CCCC(C(N)=O)C1 (stereo not drawn) [Compound A6, 1-((6-(2′-Fluoro-2-methyl-[1,1′-biphenyl]-3-yl)-2-methoxypyridin-3-yl)methyl)piperidine-3-carboxamide] |  |

Reference: article PMC8199613, “Discovery of Novel Small-Molecule Inhibitors of PD-1/PD-L1 Interaction via Structural Simplification Strategy” (Molecules, 2021)
